Assay results: patent publication US7879835B2 (Korea Research Institute of Chemical Technology, priority 2004, dated 2011)

Assays:
MG-63 cells = assay: Cytotoxicity test against osteoblast (MTT); assay type: cell-based, human
In short: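 MG-63 human osteosarcoma cells exposed to 0.1, 0.3, 1.0 and 3.0 μM compound in DMEM with 10% FBS. Osteoclast progenitors in the same text were run at 2, 4 and 8 μM, 48 h, α-MEM + 20 ng/ml M-CSF, 37 °C; MTT added 3 h before end, A550 as % of control.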

[1] = system: female mice with osteoporosis induced by ovariectomy; assay: Bone mineral density (BMD) of ovariectomized multiparous mice; assay type: in vivo; conditions: for decrease of BMD: after 8 weeks
Experimental: The effect of Compound Nos. 274 and 388 of the present invention on BMD of female mice with osteoporosis induced by ovariectomy was examined as follows.
Specifically, after anesthetizing female mice used as a control by abdominal administration with a mixture of 10 mg/kg body weight of Ketamin HCl (Ketara) and 0.15 ml/kg body weight of 2% Xylazine HCl (Roupun), the lumbar dorsum of each mouse was shaved bilaterally and the exposed skin was prepared for aseptic surgery by a 10% povidone-iodine scrub followed by a 70% alcohol wipe. A 1-cm incision was made in the central region of the abdomen, and the ovaries were identified with caution not to damage the main organs such as the liver and diaphragm. The ovaries were ligated with a suture thread, and then severed. Thereafter, each organ was relocated to its original position, and the incision was closed with a suture thread in an interrupted pattern. After ovariectomy, the mice were injected with 0.088 mg/kg body weight of gentamicin to prevent infection.
To investigate the change in BMD of the mice, bone mineral density was measured before the ovariectomy and every two weeks for 8 weeks after the ovariectomy using a bone mineral densitometer, XCT 540 Research SA (Stratec, Germany). Specifically, BMD measurement was made at a voxel size of 0.1 mm×0.1 mm, threshold values of 280 mg/cm^2 for cancellous bone and 500 mg/cm^2 for compact bone, and the analysis sites at the proximal tibias were determined by Scout scans (10 mm/sec). BMD was measured at three slices at the determined sites by CT scans (7 mm/sec), and the measurement was performed twice or more at the same site.
Multiparous mice each weighing […] were subjected to ovariectomy in accordance with the method of (3-1). From the 2nd day to 12th week after the ovariectomy, the mice were injected subcutaneously once a day with 0.5 and 1 mg/kg body weight/day of Compound Nos. 274 and 388, respectively. Alternatively, the mice were administered orally with 2.5 and 7.5 mg/kg body weight/day of Compound Nos. 274 and 388. BMD was measured before the ovariectomy, and during the period of the 2nd week to 11th week after the ovariectomy.

rats = assay: In vivo acute toxicity test (LD50); conditions: single dose, 2 weeks observation
Experimental: In order to determine the acute toxicities of the compounds prepared in Examples, 6-week old specific pathogen-free (SPF) rats each weighing […] were divided into groups of 10 rat each.
In case of subcutaneous administration, each of the compounds was dissolved in 5% PEG400 solution to a concentration of 20 mg/ml, the resulting solution was serially diluted with 5% PEG400 solution to concentrations of 5, 2.5, 1.25 and 0.625 mg/ml, and the dilutions were subcutaneously injected once to the rats at a dose of 10 ml/kg body weight.
In case of oral administration, each of the compounds was dissolved in soybean oil to a concentration of 180 mg/ml, the resulting solution was serially diluted with soybean oil to concentrations of 80, 20 and 5 mg/ml, and the dilutions were orally administered once to the rats at a dose of 20 ml/kg body weight. […]
During 2 weeks after the administration of the compounds, the death rate, clinical symptoms and weight changes of the rats were observed, and hematological and biochemical tests on blood samples were performed. Then, the rats were sacrificed and the internal organs were visually examined to check any abnormal signs in the organs of chest and abdomen.

osteoclasts = assay: Inhibitory effect on resorption activity of osteoclast (resorption pit area on calcium phosphate-coated plate); assay type: cell-based, mice; conditions: compared to control
Experimental: After finishing culture, the plate was washed with distilled water, and 50 μl/well of 5% sodium hypochlorite was added to the plate. The plate was let alone for 5 min, washed again with distilled water to remove the adherent cells, and dried at room temperature. Then, the area of formed resorption pits was calculated by means of Image Pro Plus software (Media Cybernetics Ver. 3.0).

## CO/C=C(/C(=O)OC)c1ccccc1COc1cccc(N2CCCCC2)c1 [Compound No. 388, (E)-methyl-2-[2-((3-(piperidin-1-yl)phenoxy)methyl)phenyl]-3-methoxyacrylate]
MG-63 cells; 0.33 μM compound
  relative absorbance (MTT) relative to control (set as 100): 105
MG-63 cells; 1 μM compound
  relative absorbance (MTT) relative to control (set as 100): 84
MG-63 cells; 3 μM compound
  relative absorbance (MTT) relative to control (set as 100): 81
[1]; oral administration 2.5 mg/kg
  decrease of BMD: 10.6%
[1]; oral administration 7.5 mg/kg
  decrease of BMD: 10.2%
[1]; subcutaneous injection 0.5 mg/kg
  decrease of BMD: 5.0%
[1]; subcutaneous injection 1 mg/kg
  decrease of BMD: 6.7%
rats; PO
  LD50: 110-130 mg/kg body weight

## CO/C=C(/C(=O)OC)c1ccc(Cl)cc1COc1ccc(OCCOC)cc1 [Compound No. 274, (E)-methyl-2-(2-((4-(2-methoxyethoxy)phenoxy)methyl)-4-chlorophenyl)-3-methoxyacrylate]
osteoclasts; 0.3 uM
  Reduction (%) of the resorption pit area of osteoclasts: 100%
osteoclasts; 1 uM
  Reduction (%) of the resorption pit area of osteoclasts: 100%
osteoclasts; 3 uM
  Reduction (%) of the resorption pit area of osteoclasts: 100%
MG-63 cells; 0.11 uM
  relative absorbance relative to that of the control (set as 100), MTT: 113
MG-63 cells; 0.33 uM
  relative absorbance relative to that of the control (set as 100), MTT: 108
MG-63 cells; 1 uM
  relative absorbance relative to that of the control (set as 100), MTT: 106
MG-63 cells; 3 uM
  relative absorbance relative to that of the control (set as 100), MTT: 94
[1]; oral administration (2.5 and 7.5 mg/kg body weight/day), FIGS. 1a and 1b
  increase of BMD: 0.8%
[1]; subcutaneous injection once a day (0.5 and 1 mg/kg body weight/day), FIGS. 1a and 1b
  change of BMD: no decrease of BMD
rats; PO
  LD50: 460 mg/kg body weight
rats; SC
  LD50: 11 mg/kg body weight
